Source: patent publication US8299083B2, “PDE5 inhibitor compositions and methods for treating cardiac indications” (The Johns Hopkins University, priority 2004, dated 2012)
Where “and” joins values, the source holds several entries; their conditions need not be identical. Equal entries are not always repeated.

What was measured:
PKG-1 = PKG-1 activity in isolated adult myocytes; format: cell-based, mouse; parameters: concentration or dose not given beside the values
Description: After 10 min, cells were lysed and PKG-1 activity determined.

NFAT = NFAT promoter activation in neonatal rat myocytes (β-galactosidase / luciferase reporter); format: cell-based; details: stimulated by PE or BayK8644, 1 μM sildenafil
Description: Rat neonatal cardiac myocytes were isolated from 1- to 2-day-old Sprague-Dawley rats as described^50. […] Sigma Chemical (St. […] To assess NFAT activation, cells were transfected with adenovirus expressing the three NFAT-binding sites linked to β-galactosidase ([…]), using previously described methods^72. Additional studies were performed using an alternative reporter adenovirus encoding luciferase driven by the NFAT promoter. This was performed twenty-four hours prior to PE, BayK8644, or activated calcineurin stimulation. The latter was achieved by a co-transfection with a replication-deficient adenovirus encoding a Ca^2+-independent, constitutively active, truncated mouse calcineurin […]^72). […] After an additional forty-eight hours, NFAT activation was assessed by β-galactosidase histology/activity or luciferase activity. […] Luciferase activity was assayed by commercial kit (Stratagene, La Jolla, Calif.) and read on a plate luminometer.

myocardial cGMP = assay: Myocardial cyclic nucleotide levels; format: in vivo, mouse
Description: Hearts were washed in ice-cold PBS, homogenized in 6% trichloroacetic acid, centrifuged and extracted with water-saturated ether. The aqueous layer was transferred, vacuum dried, and the pellet resuspended in sodium acetate buffer for cAMP and cGMP enzyme immunoassay (Amersham Pharmacia Biotech, Buckinghamshire, UK).

[1] = tested on: healthy human volunteers, dobutamine-stimulated cardiac function; assay: Dobutamine stress test before and after oral study drug, randomized double-blind placebo-controlled; format: in vivo
Description: Forty healthy volunteers were recruited from the general population in response to advertisements posted in the surrounding community. Subjects were screened by medical history, physical examination, and transthoracic echocardiogram. Individuals with heart disease, atherosclerosis, hypertension, diabetes mellitus, pulmonary hypertension, renal or hepatic disease, smoking, pregnancy, or under treatment with nitrates, adrenergic-blocking drugs, or medicines known to interfere with sildenafil pharmacokinetics were excluded. […] All subjects were instructed to fast for >6 hours prior to study. […] Intravenous dobutamine (5 μg/kg/min) was then administered for 5 minutes to achieve a stable response, and measurements repeated (D1). Dobutamine was discontinued, and 15 minutes provided to return to the baseline state. […] Data were again recorded for a second baseline (B2), and during a second dobutamine infusion (D2) using the identical protocol as for the first test. Systolic function was determined by cardiac-specific indexes that combined measurements of pressure, dimension, and flow. Arterial pressure was determined by an oscillometric arm cuff ([…] 2-dimensional echo-Doppler measurements by an Agilent Sonos 5500 (Philips, The Netherlands) employing a 3 MHz probe. All echo-Doppler measurements were digitally acquired to optical disc and analyzed offline by a single blinded investigator. Each measurement reflected the average of at least 3 separate beats. Aortic flow was equal to the velocity time-integral from pulse-wave Doppler in the left ventricular outflow tract multiplied by cross sectional […].^83 Stroke volume, peak, and mean flow were determined from this waveform. Cardiac output was the product of heart rate and stroke volume. Systemic vascular resistance was the ratio of mean arterial pressure (1⁄3 pulse pressure+diastolic blood pressure) to cardiac output. Cardiac contractility was assessed by several load-independent indexes. […] Load-independent secondary outcome contractility parameters were mean ventricular power index and the end-systolic pressure/volume ratio, an approximation for ventricular end systolic elastance. Other secondary outcome variables included routine measures of cardiac systolic and diastolic function. Ejection fraction was determined from cardiac end-diastolic and systolic volumes determined by Simpson's method using apical 4- and 2-chamber views. End-diastolic volume was equal to stroke volume (from Doppler) divided by ejection fraction, with end-systolic volume equal to the difference of the former and latter. Pulse-wave Doppler spectra of transmittal inflow and tissue Doppler imaging of the lateral mitral annular (E') velocities were used to assess diastolic function.^89 The ratio of E/E' was determined as a surrogate marker of left ventricular filling pressures as previously validated^90. Isovolumic relaxation time was measured by continuous wave Doppler as the time between aortic flow cessation and onset of mitral inflow. All statistical analysis was performed using Systat® software. Results are expressed as mean±standard deviation. […] The primary test was a test between group analysis of whether sildenafil (versus placebo) altered the disparity between the first and second dobutamine response, and determined by a three-way interaction term that included each grouping factor. […] Within group analysis was also performed using a 2-tailed Student's paired t-test to assess individual dobutamine responses ([…]2), and a 2-way ANOVA to test whether study drug altered this response within in each group. Categorical variables were compared using the Chi-squared test.

[2] = tested on: C57BL/6 mice, pressure overload by transverse aortic constriction; assay: TAC-induced cardiac hypertrophy, remodeling and fibrosis (heart weight/tibia length, histology); format: in vivo, mouse
Description: TAC induced marked heart chamber and cellular hypertrophy (+100% by 3-weeks) that progressed to chamber dilation with reduced fractional shortening after 9 weeks. […] TAC induced a time-dependent increase in myocardial fibrosis and myocyte hypertrophy and both were suppressed by PDE5A inhibition (FIG. 1C, e.g. 67% reduction in fibrosis in 9-week hearts, p<0.0001).
Pressure overload was produced by transverse aortic constriction.
Hearts were fixed with 10% formalin overnight, then embedded in paraffin, sectioned at 5 μm thickness and stained with PAS methenamine. Cardiomyocyte diameter and interstitial collagen fraction were determined using computer-assisted image analysis (Adobe Photoshop 5.0, NIH Image J), with the observer blinded as to tissue source. At least 4-5 different hearts, with five separate fields of cells (total 50-70 cells for each heart) were quantified for cellular analysis.

[3] = inhibitor combined with isoproterenol
[4] = dobutamine-induced change after sildenafil
[5] = resting baseline after vs before 100 mg oral sildenafil
[6] = second versus initial dobutamine response

In the case of `CCCc1nn(C)c2c(=O)[nH]c(-c3cc(S(=O)(=O)N4CCN(C)CC4)ccc3OCC)nc12` [sildenafil], the “enhancement of PKG-1 activity” value (PKG-1; basal conditions, inhibitor alone) is reported as about 10%, the “rise in PKG-1 activity” value (PKG-1; [3]) is reported as 50% and 70% and the “rise in PKG-1 activity over ISO alone” value (PKG-1; [3]) is reported as 30%. For the same compound, the NFAT promoter activation (NFAT) was “suppressed activation”, the “total myocardial cGMP” value (myocardial cGMP; TAC hearts, chronic co-treatment) was “declined” and the “myocardial cAMP levels” value (myocardial cGMP; basal or TAC conditions) was “did not alter myocardial cAMP levels”. For the same compound, the “total myocardial cGMP” value (myocardial cGMP; sham controls, chronic treatment) was “did not change”, the “dobutamine-induced change in ventricular end-systolic elastance” value ([1]; after sildenafil 100 mg oral) was 0.84±0.9 mmHg/ml and the “dobutamine-induced increase in ejection fraction (absolute change)” value ([1]; after sildenafil 100 mg oral) was 4±5%. For the same compound, the “dobutamine-induced increase in heart rate” value ([1]; after sildenafil 100 mg oral) was “+14.5±4.7 bpm”, the “dobutamine-mediated drop in peripheral resistance” value ([1]; after sildenafil 100 mg oral) was “not modified” and the “diastolic changes induced by dobutamine” value ([1]; compared to placebo) was “did not significantly alter diastolic changes induced by dobutamine”. The “A velocity, D2 − B2” value [1, 4] was 11 ± 7 cm/s, the “E velocity, D2 − B2” value [1, 4] was 12 ± 11 cm/s and the “E′ velocity, D2 − B2” value [1, 4] was 1.5 ± 2.4 cm/s. The “IVRT, D2 − B2” value [1, 4] was −20 ± 13, the “A velocity, Δ(B2 − B1)” value [1, 5] was -3 ± 8 cm/s and the “Diastolic Blood Pressure, Δ(B2 − B1)” value [1, 5] was −6 ± 5 mmHg. For the same compound, the “E velocity, Δ(B2 − B1)” value [1, 5] was -4 ± 12 cm/s, the “Ejection Fraction, Δ(B2 − B1)” value [1, 5] was “+6 ± 2” and the “End Systolic Elastance, Δ(B2 − B1)” value [1, 5] was “+0.4 ± 0.2 mmHg/mL”. The “E′ velocity, Δ(B2 − B1)” value [1, 5] was “+0 ± 3 cm/sec”, the “Heart Rate, Δ(B2 − B1)” value [1, 5] was “+0 ± 3 min^−1” and the “IVRT, Δ(B2 − B1)” value [1, 5] was “+8 ± 12 msec”. For the same compound, the “Stroke Volume, Δ(B2 − B1)” value [1, 5] was “+5 ± 6 mL”, the “Systolic Blood Pressure, Δ(B2 − B1)” value [1, 5] was −6 ± 3 mmHg and the “Total Peripheral Resistance, Δ(B2 − B1)” value [1, 5] was −170 ± 60 dyne * s/cm^5. For the same compound, the “reduction of dobutamine-induced ejection fraction change” value [1, 6] was 66±64%, the “reduction of dobutamine-induced end-systolic elastance change” value [1, 6] was 56±63% and the “reduction of dobutamine-induced peak power change” value [1, 6] was 32±34%. The adverse events ([1]; single 100 mg oral dose, healthy volunteers) was “no adverse events”, the “myocyte hypertrophy and interstitial fibrosis, established hypertrophy” value ([2]; 1-week TAC, then 2 weeks treatment) was “both reversed towards baseline” and the reduction in fibrosis ([2]; 9-week TAC hearts) was 67%. For the same compound, the “TAC-induced hypertrophy and chamber remodeling” value ([2]; TAC mice, concurrent oral treatment) was “inhibited”, the “reduction of cardiac hypertrophy (heart weight/tibia length)” value ([2]; TAC mice, sildenafil 100 mg/kg/day) was “more than 50%” and the “effect on sham-operated controls” value ([2]; sham-operated mice) was “no impact”.
